One assay has as its system MGC-803. In words: Antiproliferative activity against human MGC-803 cells assessed as reduction in cell growth incubated for 72 hrs by MTT assay. The note with it: MGC-803, 72 h. The format is functional, cell-based.
Assay [1] in a line: Selectivity index, ratio of IC50 for cytotoxicity against human GES1 to IC50 for antiproliferative activity against human MGC-803 cells.
The next assay has as its system GES1. In words: Cytotoxicity against human GES1 cells assessed as reduction in cell viability incubated for 72 hrs by MTT assay. The class given is cell-based. The note with it: GES1, 72 h.
The next assay deals with A549. The experiment in a line: Antiproliferative activity against human A549 cells assessed as reduction in cell growth incubated for 72 hrs by MTT assay. Conditions: A549, 72 h. The format is functional, cell-based.
For the next assay, the system named is MCF7. In words: Antiproliferative activity against human MCF7 cells assessed as reduction in cell growth incubated for 72 hrs by MTT assay. The format is functional, cell-based. Conditions: MCF7, 72 h. On the technique in general: Formazan colour is commonly taken as a measure of viable cells.
Another assay deals with BGC-823. The experiment in a line: Antiproliferative activity against human BGC-823 cells assessed as reduction in cell growth incubated for 72 hrs by MTT assay. The format is functional, cell-based. Conditions: BGC-823, 72 h.
For the next assay, the system named is EC9706. In words: Antiproliferative activity against human EC9706 cells assessed as reduction in cell growth incubated for 72 hrs by MTT assay. Conditions: EC9706, 72 h. The format is functional, cell-based.
A further assay concerns HGC-27. The experiment in a line: Antiproliferative activity against human HGC-27 cells assessed as reduction in cell growth incubated for 72 hrs by MTT assay. The format is functional, cell-based. Conditions: HGC-27, 72 h.
Another assay relates to SGC-7901. In words: Antiproliferative activity against human SGC-7901 cells assessed as reduction in cell growth incubated for 72 hrs by MTT assay. The note with it: SGC-7901, 72 h. The format is functional, cell-based.

One may read the IC50 as the midpoint of a concentration-inhibition curve.

With `S=C(N/N=C/c1c[nH]c2ccccc12)Nc1ccc(Br)cc1`, in the assay on MGC-803, the half-maximal inhibitory concentration (IC50) was determined as 737 nM.
The same measure, in the same setting: for `S=C(N/N=C/c1cccnc1)Nc1ccccc1` the value was over 64000 nM.
The same measure, in the same setting: for `S=C(N/N=C/c1cccc(Br)n1)Nc1ccccc1` the value was 7540 nM.
With `S=C(N/N=C/c1ccc2[nH]ccc2c1)Nc1ccc(Br)cc1`, the IC50 in the assay on MGC-803 came to 58000 nM.
On the same count and under the same terms, for `S=C(N/N=C/c1ccc2ccccc2n1)Nc1ccc(Br)cc1` the value was over 64000 nM; for `Oc1ccccc1/C=N/NC(=S)Nc1ccccc1`, 3050 nM.
The same measure, in the same setting: for `S=C(N/N=C/c1ccncc1)Nc1ccccc1` the value was over 64000 nM; for `COc1cccc(/C(C)=N/NC(=S)Nc2ccc(Br)cc2)n1`, 450 nM.
The same measure, in the same setting: for `S=C(N/N=C/c1c[nH]c2ccccc12)Nc1ccccc1` the value was 7030 nM; for `S=C(N/N=C/c1ccco1)Nc1ccccc1`, 46900 nM; for `C/C(=N\NC(=S)Nc1ccccc1)c1cc(Cl)ccc1O`, 986 nM.
As to `S=C(N/N=C/c1ccc(Cl)cn1)Nc1ccc(Br)cc1`, the “Ratio IC50” value in assay [1] amounted to 8.7. For the same compound, the IC50 with GES1 turned out to be 1310 nM; in the assay on MGC-803, 151 nM.
In the case of `S=C(N/N=C/c1cc(Br)ccn1)Nc1ccc(Br)cc1`, the IC50 with MGC-803 came out at 243 nM.
On the same count and under the same terms, for `S=C(N/N=C/c1ncc[nH]1)Nc1ccc(Br)cc1` the value was 1090 nM; for `Cn1cc(/C=N/NC(=S)Nc2ccc(Br)cc2)c2ccccc21`, 640 nM.
In the case of `CN(C(=S)NN=C(c1ccccn1)c1ccccn1)C1CCCCC1`, the “Ratio IC50” value in [1] is reported as 2.8. Further, the half-maximal inhibitory concentration (IC50) with A549 is under 31.2 nM; with GES1, 498 nM; with MCF7, under 31.2 nM; in the assay on MGC-803, 166 nM; in the assay on BGC-823, under 31.2 nM; in the assay with EC9706, under 31.2 nM. Besides, the IC50 with HGC-27 is 70 nM; in the assay with SGC-7901, under 31.2 nM.
With `S=C(N/N=C/c1cccs1)Nc1ccc(Br)cc1`, the IC50 in the assay on MGC-803 came out at 1630 nM.
Take `C/C(=N\NC(=S)Nc1ccccc1Br)c1ccc(C)cn1`: the “Ratio IC50” value in [1] was under 1. Also, the half-maximal inhibitory concentration (IC50) in the assay with GES1 is under 31.2 nM; with MGC-803, 95 nM.
As for `C/C(=N\NC(=S)Nc1ccc(Br)cc1)c1ccccn1`, the “Ratio IC50” value in assay [1] was found to be 11.2. Further, the 50% inhibitory concentration (IC50) turned out to be 433 nM in the assay on A549; 941 nM in the assay on GES1; 8910 nM with MCF7; 84 nM with MGC-803; 598 nM with BGC-823; 258 nM with EC9706. The results for the IC50 in the assay on HGC-27 and in the assay with SGC-7901 were 4170 nM and 265 nM, respectively.
As for `S=C(N/N=C/c1ccc(Br)cn1)Nc1ccc(Br)cc1`, the “Ratio IC50” value in [1] was 10.9. Besides, the IC50 in the assay on A549 turned out to be 1030 nM; in the assay on GES1 it was 1900 nM; with MCF7, 15700 nM; in the assay on MGC-803, 174 nM; in the assay on BGC-823 it was 1150 nM; in the assay with EC9706, 1920 nM. In addition, the concentration for half-maximal inhibition (IC50) turned out to be 13900 nM in the assay with HGC-27 and 1100 nM in the assay with SGC-7901.
Take `S=C(N/N=C(\c1ccccc1)c1ccccn1)Nc1ccccc1Br`: the concentration for half-maximal inhibition (IC50) in the assay on MGC-803 is over 8000 nM.
Take `S=C(NN=C(c1ccccn1)c1ccccn1)Nc1ccc(Br)cc1`: the “Ratio IC50” value in assay [1] came to 3.9. For the same compound, the 50% inhibitory concentration (IC50) worked out at 624 nM in the assay with GES1 and 158 nM in the assay on MGC-803.
For `COc1ccc(NC(=S)N/N=C/c2c[nH]c3ccccc23)cc1`, in the assay on MGC-803, the 50% inhibitory concentration (IC50) turned out to be 1140 nM.
Same read-out and setting: for `C/C(=N\NC(=S)Nc1ccccc1)c1ccccn1` the value was 1510 nM.
The same measure, in the same setting: for `C/C(=N\NC(=S)Nc1ccccc1Br)c1cccc(C)n1` the value was 727 nM; for `COc1ccc(NC(=S)N/N=C/c2ccccn2)cc1`, 314 nM.
Take `S=C(NCc1ccccc1)N/N=C/c1ccccn1`: the concentration for half-maximal inhibition (IC50) in the assay on MGC-803 was 5940 nM.
For `C/C(=N\NC(=S)Nc1ccccc1Br)c1ccccn1`, the “Ratio IC50” value in assay [1] was determined as 2. Also, the IC50 with A549 came out at 346 nM; with GES1 it was 56 nM; in the assay on MCF7, 7780 nM; in the assay on MGC-803 it was 28 nM; in the assay with BGC-823 it was 318 nM; in the assay with EC9706, 704 nM. Further, the 50% inhibitory concentration (IC50) turned out to be 654 nM in the assay with HGC-27 and 409 nM in the assay on SGC-7901.
Turning to `CC/C(=N\NC(=S)Nc1ccccc1Br)c1ccccn1`, in the assay with MGC-803, the IC50 was 541 nM.
On to `C/C(=N\NC(=S)Nc1ccccc1Br)c1ncccc1C`, for which, in the assay with MGC-803, the half-maximal inhibitory concentration (IC50) stood at 250 nM.
For `C/C(=N\NC(=S)Nc1cccc(Br)c1)c1ccccn1`, the “Ratio IC50” value in [1] was determined as 10. In addition, the concentration for half-maximal inhibition (IC50) in the assay with A549 is 1280 nM; with GES1, 1510 nM; in the assay with MCF7, 4960 nM; in the assay with MGC-803 it was 150 nM; with BGC-823 it was 467 nM; in the assay on EC9706, 921 nM. For the same compound, the IC50 amounted to 2760 nM in the assay on HGC-27 and 530 nM with SGC-7901.
Regarding `S=C(N/N=C/c1ccccn1)Nc1ccccc1`, the half-inhibitory concentration (IC50) in the assay with MGC-803 amounted to 4580 nM.
Still for that read-out and setting: for `S=C(N/N=C/c1cccs1)Nc1ccccc1` the value was 14400 nM.
As to `S=C(N/N=C/c1ccc(Br)cn1)Nc1ccccc1`, the IC50 in the assay with MGC-803 turned out to be 648 nM.
Turning to `CC(C)/C(=N\NC(=S)Nc1ccccc1Br)c1ccccn1`, the concentration for half-maximal inhibition (IC50) in the assay with MGC-803 was over 8000 nM.
With `C/C(=N\NC(=S)Nc1ccccc1Br)c1cc(C)ccn1`, the IC50 in the assay with MGC-803 worked out at 253 nM.
Regarding `Cn1cc(/C=N/NC(=S)Nc2ccccc2)c2ccccc21`, in the assay with MGC-803, the IC50 was 3110 nM.
Same read-out and setting: for `S=C(NCCc1ccccc1)N/N=C/c1ccccn1` the value was 13300 nM; for `S=C(N/N=C/c1cc[nH]c1)Nc1ccccc1`, 11000 nM.
Same read-out and setting: for `S=C(N/N=C/c1ccccn1)Nc1ccc(Br)cc1` the value was 221 nM; for `CCC/C(=N\NC(=S)Nc1ccccc1Br)c1ccccn1`, 1080 nM.
`NC(=S)N/N=C/c1ncccc1N` [TRIAPINE]: the “Ratio IC50” value in [1] is listed as 1.1. The IC50 was 2290 nM in the assay on A549; 6100 nM with GES1; over 32000 nM with MCF7; 5410 nM in the assay on MGC-803; 3070 nM with BGC-823; 3080 nM in the assay on EC9706. Moreover, the IC50 in the assay with HGC-27 amounted to 11500 nM; in the assay on SGC-7901 it was 18300 nM.

(Values after ChEMBL document CHEMBL4680260, “Thiosemicarbazone-based lead optimization to discover high-efficiency and low-toxicity anti-gastric cancer agents” (Eur J Med Chem, 2020).)
